Results reported in ChEMBL document CHEMBL1201862, “PubChem BioAssay data set” (2004).
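Dose response: 5 concentrations. Exposure: 48 h. Format: 96-well plates. Endpoint: linear interpolation; highest concentration if not reached. GI50 is the concentration that inhibits growth by half.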 Activity calls are given as the source filed them. No stated cut-off is given here; in the data, active = GI50 up to about 1.1 µM and inactive = higher.

What was measured:
Experiment in all cases: inhibition of tumour cell growth, NCI panel, 48 h
KM12 = test system: KM12
HOP-92 = test system: HOP-92
ACHN = test system: ACHN
MDA-MB-231 = test system: MDA-MB-231
TK-10 = test system: TK-10
T47D = test system: T47D
NCI-H23 = test system: NCI-H23
RPMI-8226 = test system: RPMI-8226
SW-620 = test system: SW-620
Hs-578T = test system: Hs-578T
NCI-H460 = test system: NCI-H460
IGROV-1 = test system: IGROV-1
OVCAR-5 = test system: OVCAR-5
MOLT-4 = test system: MOLT-4
U-251 = test system: U-251
A498 = test system: A498
HL-60 = test system: HL-60
RXF 393 = test system: RXF 393
CAKI-1 = test system: CAKI-1
SR = test system: SR

Row | SMILES | GI50 (KM12) | GI50 (HOP-92) | GI50 (ACHN) | GI50 (MDA-MB-231) | GI50 (TK-10) | GI50 (T47D) | GI50 (NCI-H23) | GI50 (RPMI-8226) | GI50 (SW-620) | GI50 (Hs-578T) | GI50 (NCI-H460) | GI50 (IGROV-1) | GI50 (OVCAR-5) | GI50 (MOLT-4) | GI50 (U-251) | GI50 (A498) | GI50 (HL-60) | GI50 (RXF 393) | GI50 (CAKI-1) | GI50 (SR)
1 | CCN(CC)Cc1c(/C=C\c2cc(OC)c(OC)c(OC)c2)ccc(OC)c1O | 1.69 µM (inactive) | 8.87 µM (inactive) | 8.59 µM (inactive) | 4.28 µM (inactive) | 9.4 µM (inactive) | > 100 µM (inactive) | 2.97 µM (inactive) | 3 µM (inactive) | 2.77 µM (inactive) | 2.08 µM (inactive) | 3.48 µM (inactive) | 4.2 µM (inactive) | 9.48 µM (inactive) | 15.3 µM (inactive) | 2.87 µM (inactive) | 6.22 µM (inactive) | 3.85 µM (inactive) | 2.04 µM (inactive) | 4.42 µM (inactive) | –
2 | CCOC(=O)NC(Nc1ccc(C)cc1)(C(F)(F)F)C(F)(F)F | > 100 µM (inactive) | > 100 µM (inactive) | > 100 µM (inactive) | > 100 µM (inactive) | > 100 µM (inactive) | > 100 µM (inactive) | > 100 µM (inactive) | > 100 µM (inactive) | > 100 µM (inactive) | > 100 µM (inactive) | > 100 µM (inactive) | > 100 µM (inactive) | > 100 µM (inactive) | > 100 µM (inactive) | > 100 µM (inactive) | > 100 µM (inactive) | > 100 µM (inactive) | – | – | –
3 | COc1ccc(-c2cc(=O)c3c(O)c(OC)c(OC)c(OC)c3o2)cc1 [GARDENIN B] | 0.92 µM (active) | 27.4 µM (inactive) | > 100 µM (inactive) | 12.6 µM (inactive) | 26.2 µM (inactive) | 26.9 µM (inactive) | > 36.3 µM (inactive) | > 28.1 µM (inactive) | 2.13 µM (inactive) | 26.2 µM (inactive) | 24.9 µM (inactive) | 2.33 µM (inactive) | 98.6 µM (inactive) | > 100 µM (inactive) | 15.5 µM (inactive) | – | 0.863 µM (active) | 10.6 µM (inactive) | > 100 µM (inactive) | 0.39 µM (active)
4 | Cn1c(N2CCCC2)c(C=O)c(=O)n(C)c1=O | > 100 µM (inactive) | > 100 µM (inactive) | > 100 µM (inactive) | > 100 µM (inactive) | > 100 µM (inactive) | > 100 µM (inactive) | > 100 µM (inactive) | > 100 µM (inactive) | > 100 µM (inactive) | 91.6 µM (inactive) | > 100 µM (inactive) | > 100 µM (inactive) | > 100 µM (inactive) | > 100 µM (inactive) | > 100 µM (inactive) | > 100 µM (inactive) | > 100 µM (inactive) | > 100 µM (inactive) | > 100 µM (inactive) | –
5 | CC(=O)OC/C=C(\C)CCC(Br)C(C)(C)Br (centres undefined) | > 10 µM (inactive) | – | > 10 µM (inactive) | > 10 µM (inactive) | > 10 µM (inactive) | > 10 µM (inactive) | > 10 µM (inactive) | > 10 µM (inactive) | > 10 µM (inactive) | > 10 µM (inactive) | > 10 µM (inactive) | > 10 µM (inactive) | > 10 µM (inactive) | > 10 µM (inactive) | > 10 µM (inactive) | > 10 µM (inactive) | > 10 µM (inactive) | > 10 µM (inactive) | > 10 µM (inactive) | –
6 | Cc1c2c(n(C)c1C)C(=O)C1C(C2=O)C2(C)c3ccccc3C1(C)c1ccccc12 (centres undefined) | > 100 µM (inactive) | – | > 100 µM (inactive) | – | > 100 µM (inactive) | > 100 µM (inactive) | > 100 µM (inactive) | > 100 µM (inactive) | > 100 µM (inactive) | > 100 µM (inactive) | > 100 µM (inactive) | > 100 µM (inactive) | > 100 µM (inactive) | > 100 µM (inactive) | > 10 µM (inactive) | > 100 µM (inactive) | > 100 µM (inactive) | > 100 µM (inactive) | – | 24.4 µM (inactive)
7 | CCOC1(OCC)N=C(N)C2(C#N)C3(C(=O)N(C(C)C)N=C3C)C12C#N (centres undefined) | > 100 µM (inactive) | > 100 µM (inactive) | > 100 µM (inactive) | > 100 µM (inactive) | – | > 100 µM (inactive) | > 100 µM (inactive) | > 100 µM (inactive) | > 100 µM (inactive) | – | > 100 µM (inactive) | > 100 µM (inactive) | > 100 µM (inactive) | > 100 µM (inactive) | > 100 µM (inactive) | > 100 µM (inactive) | 0.893 µM (active) | > 100 µM (inactive) | > 100 µM (inactive) | 45.4 µM (inactive)
8 | CC(C)CC1C(=O)NCCC(NC(=O)C(Cc2ccc(OC(C)(C)C)cc2)NC(=O)OC(C)(C)C)C(=O)NC(Cc2ccccc2)C(=O)NC(Cc2ccccc2)NC1=O (centres undefined) | 43.6 µM (inactive) | 11.2 µM (inactive) | 7.89 µM (inactive) | 4.9 µM (inactive) | 11.7 µM (inactive) | 3.69 µM (inactive) | 13.3 µM (inactive) | 9.75 µM (inactive) | 2.54 µM (inactive) | 13.4 µM (inactive) | 2.96 µM (inactive) | 16 µM (inactive) | 6.25 µM (inactive) | 1.51 µM (inactive) | 12.8 µM (inactive) | – | 8.36 µM (inactive) | 10.3 µM (inactive) | 10.8 µM (inactive) | 13.2 µM (inactive)
9 | O=S(=O)(O)c1ccc(/N=N/c2ccc(/N=N/c3c(O)ccc4ccc(S(=O)(=O)O)cc34)cc2)cc1 | > 100 µM (inactive) | > 100 µM (inactive) | > 100 µM (inactive) | > 100 µM (inactive) | > 100 µM (inactive) | > 100 µM (inactive) | > 100 µM (inactive) | > 100 µM (inactive) | > 100 µM (inactive) | > 100 µM (inactive) | > 100 µM (inactive) | > 100 µM (inactive) | > 100 µM (inactive) | > 100 µM (inactive) | > 100 µM (inactive) | – | > 100 µM (inactive) | > 100 µM (inactive) | > 100 µM (inactive) | > 100 µM (inactive)
10 | CN(C)c1ccc(/C=C2\C[C@H]3[C@@H]4CC=C5C[C@@H](O)CC[C@]5(C)[C@H]4CC[C@]3(C)[C@H]2O)cc1 | 36 µM (inactive) | – | 16 µM (inactive) | 16.2 µM (inactive) | 18.5 µM (inactive) | 23.3 µM (inactive) | 15.9 µM (inactive) | 29.9 µM (inactive) | 24.8 µM (inactive) | 23.4 µM (inactive) | 14.4 µM (inactive) | 19.2 µM (inactive) | 17.3 µM (inactive) | 32 µM (inactive) | 8.2 µM (inactive) | 17.2 µM (inactive) | 31 µM (inactive) | 25.5 µM (inactive) | – | 21 µM (inactive)
11 | O=C1C2=C(SCCS2)C(=O)c2c(Sc3ccc(Cl)cc3)c(Sc3ccc(Cl)cc3)c(Sc3ccc(Cl)cc3)c(Sc3ccc(Cl)cc3)c21 | > 100 µM (inactive) | – | > 100 µM (inactive) | 32 µM (inactive) | – | > 100 µM (inactive) | 74.3 µM (inactive) | 51.3 µM (inactive) | > 100 µM (inactive) | 8.49 µM (inactive) | > 100 µM (inactive) | 99.1 µM (inactive) | > 100 µM (inactive) | 17.1 µM (inactive) | 57.8 µM (inactive) | 29.2 µM (inactive) | – | 27 µM (inactive) | > 100 µM (inactive) | 21.8 µM (inactive)
12 | CNC(=O)CCCNC(=O)CCCC(=O)N(C)C | > 100 µM (inactive) | > 100 µM (inactive) | > 100 µM (inactive) | > 100 µM (inactive) | > 100 µM (inactive) | > 100 µM (inactive) | > 100 µM (inactive) | > 100 µM (inactive) | 45.5 µM (inactive) | > 100 µM (inactive) | > 100 µM (inactive) | > 100 µM (inactive) | > 100 µM (inactive) | > 100 µM (inactive) | > 100 µM (inactive) | > 100 µM (inactive) | > 100 µM (inactive) | – | > 100 µM (inactive) | –
13 | Cc1c(C#N)c(N)[nH]c(=S)c1C#N | > 100 µM (inactive) | – | > 100 µM (inactive) | > 100 µM (inactive) | > 100 µM (inactive) | > 100 µM (inactive) | > 100 µM (inactive) | > 100 µM (inactive) | > 100 µM (inactive) | > 100 µM (inactive) | > 100 µM (inactive) | > 100 µM (inactive) | > 100 µM (inactive) | > 100 µM (inactive) | > 100 µM (inactive) | > 100 µM (inactive) | > 100 µM (inactive) | > 100 µM (inactive) | > 100 µM (inactive) | > 100 µM (inactive)
14 | COc1ccc(Nc2nc(N)c(C(=O)c3ccccc3)s2)cc1 | 0.143 µM (active) | 33.6 µM (inactive) | 7.67 µM (inactive) | – | 23.8 µM (inactive) | 40.2 µM (inactive) | 0.232 µM (active) | 0.0681 µM (active) | 0.0197 µM (active) | 0.0826 µM (active) | 0.0289 µM (active) | 0.273 µM (active) | 19.5 µM (inactive) | < 0.0238 µM (active) | 0.0302 µM (active) | 5.66 µM (inactive) | < 0.01 µM (active) | 0.19 µM (active) | 0.0342 µM (active) | < 0.01 µM (active)
15 | Nc1ccc2c(c1)S(=O)(=O)c1cc(N)ccc1-2 | > 100 µM (inactive) | > 100 µM (inactive) | > 100 µM (inactive) | > 100 µM (inactive) | > 100 µM (inactive) | > 100 µM (inactive) | > 100 µM (inactive) | – | > 100 µM (inactive) | > 100 µM (inactive) | > 100 µM (inactive) | > 100 µM (inactive) | > 100 µM (inactive) | > 100 µM (inactive) | > 100 µM (inactive) | > 100 µM (inactive) | 78.5 µM (inactive) | > 100 µM (inactive) | > 100 µM (inactive) | –
